Four compounds from patent US20160237106A1 (priority 2015, published 2016) can be followed below.

Molecules are shown by their SMILES.

One data set relates to Ebola virus. Briefly: microbe, parasite or virus in culture. Format: cell-based. The settings on record: Zaire ebolavirus, Vero C1008.
The nature of another data set: in vitro. The settings on record: African green monkey.

For orientation: EC50 means the concentration needed to bring the measured effect to its halfway point. `C[C@H](NP(=O)(OC[C@@]1(N=[N+]=[N-])O[C@@H](n2ccc(=O)[nH]c2=O)[C@H](O)[C@@H]1O)Oc1cccc2ccccc12)C(=O)OCc1ccccc1` (stereo partly drawn) [Compound I-6, 4′-Azidouridine-5′-(O-1-naphthyl-N-(S)-1-(benzyloxycarbonyl)ethyl phosphoramidate] registered a half-maximal effective concentration (EC50) with Ebola virus of less than 20 µM. The CC50 in the data set “in vitro” is greater than 50 µM.
For the compound `[N-]=[N+]=N[C@]1(CO)O[C@@H](n2ccc(N)nc2=O)[C@H](F)[C@@H]1O` [Compound I-17, 4′-Azido-2′-deoxy-2′-fluorocytidine], the EC50 in the data set on Ebola virus is less than 20 µM. Also, the CC50 in the data set “in vitro” was greater than 50 µM.
`[N-]=[N+]=N[C@]1(CO)O[C@@H](n2cnc3c(=O)[nH]c(N)nc32)[C@H](F)[C@@H]1O` [Compound I-47, 4′-Azido-2′-deoxy-2′-fluoroguanosine]: the half-maximal effective concentration (EC50) in the data set with Ebola virus is less than 20 µM. The CC50 in “in vitro” was greater than 50 µM.
With `[N-]=[N+]=N[C@]1(CO)O[C@@H](n2cnc3c(=O)[nH]c(N)nc32)[C@H](O)[C@@H]1O` [Compound I-48, 4′-Azidoguanosine], in the data set on Ebola virus, the concentration for a half-maximal effect (EC50) is less than 50 µM. Moreover, in the data set “in vitro”, the CC50 is greater than 50 µM.
